From patent US10780074B2, “Compounds and uses thereof” (Sunovion Pharmaceuticals Inc., priority 2017, dated 2020) come the findings set out here.

Structures can show the parent of a compound that is named as a salt.

This test relates to behaviors of compound-treated mice. Put plainly: Neuropharmacological Assay (SmartCube). To be noted: for minimal effective dose: Mus musculus, ip, 0.25 h, dose having 50% or more total activity in SmartCube, i.p., read-out: MED (minimal effective dose); for AD: ADHD (probability that activity matches class) / AG: analgesic (probability that activity matches class) / AX: anxiolytic (probability that activity matches class) / CE: cognitive enhancer (probability that activity matches class) / DP: anti-depressant (probability that activity matches class) / MS: mood stabilizer (probability that activity matches class) / PS: anti-psychotic (probability that activity matches class) / SD: sedative hypnotic (probability that activity matches class) / UN: uncharacterized CNS activity (probability that activity matches class): i.p. 15 min before behavioral test, most efficacious dose(s) of 3 doses. In kind it is in vivo. The text has this: Neuropharmacological Assay (SmartCube™)
Neurosci. 2011 Sep. 9; 5:103 (doi: 10.3389/fnins.2011.00103) (“Roberds”). As reported in Roberds, because psychiatric diseases generally result from disorders of cell-cell communication or circuitry, intact systems are useful in detecting improvement in disease-relevant endpoints. These endpoints are typically behavioral in nature, often requiring human observation and interpretation. To facilitate testing of multiple compounds for behavioral effects relevant to psychiatric disease, PsychoGenics, Inc. (Tarrytown, N.Y., “PGI”) developed SmartCube™, an automated system in which behaviors of compound-treated mice are captured by digital video and analyzed with computer algorithms. (D. Brunner et al., Drug Discov. Today 2002, 7:S107-S112). PGI Analytical Systems uses data from SmartCube™ to compare the behavioral signature of a test compound to a database of behavioral signatures obtained using a large set of diverse reference compounds. (The composition of the database as well as validation of the method is further described in Roberds). In this way, the neuropharmacological effects of a test compound can be predicted by similarity to major classes of compounds, such as antipsychotics, anxiolytics and antidepressants.
The SmartCube™ system produces an activity signature indicating the probability that the activity of the test compound at the administered dose matches a given class of neuropharmacological agents. (See, e.g., Roberds, FIGS. 2 and 3). The test compound is simultaneously compared against multiple classes of agents; thus, a separate probability is generated for each behavioral effect measured (e.g., anxiolytic activity, analgesic activity, etc.). In the table below, these probabilities are reported for each behavioral effect measured as follows:
Provided compounds were dissolved in a mixture of Pharmasolve™ (N-methyl-2-pyrrolidone), polyethylene glycol and propylene glycol, and were injected i.p. 15 min. before the behavioral test. For each compound, injections were administered at 3 different doses. For each behavioral effect measured, results for the most efficacious dose(s) are presented. In the table below, DP: anti-depressant; AX: anxiolytic; SD: sedative hypnotic; PS: anti-psychotic; MS: mood stabilizer; AD: ADHD; CE: cognitive enhancer; AG: analgesic; UN: uncharacterized CNS activity.
The potency of many of the compounds in the table was also determined in the SmartCube™ system. Test compounds were routinely examined at dose levels of 0.3, 1, 3 10 and 30 mg per kg (mpk), although the dose range was increased or decreased if necessary to obtain a full dose response curve. A compound's minimal effective dose (MED) is a measure of the compounds potency. The MED was defined as the dose (in mpk) having 50% or more total activity in SmartCube.

For `CNC[C@@H]1OCCc2ccc(-c3cncnc3)cc21` (single isomer, unassigned) [Compound 26, hydrochloride], the minimal effective dose (in general, the smallest amount tested that counted as effective) is over 30 mg/kg; the “AD: ADHD (probability that activity matches class)” value (shortened to “AD: ADHD”) was “+ (LOQ ≤ + <5%)”; the “AG: analgesic (probability that activity matches class)” value (“AG: analgesic” below) is listed as “+ (LOQ ≤ + <5%)”; the “AX: anxiolytic (probability that activity matches class)” value (shortened to “AX: anxiolytic”) was “+ (LOQ ≤ + <5%)”. For the same compound, the “CE: cognitive enhancer (probability that activity matches class)” value (from here on “CE: cognitive enhancer”) is recorded as “+ (LOQ ≤ + <5%)”, the “DP: anti-depressant (probability that activity matches class)” value (“DP: anti-depressant” for short) is “+ (LOQ ≤ + <5%)”, the “MS: mood stabilizer (probability that activity matches class)” value (from here on “MS: mood stabilizer”) was “+ (LOQ ≤ + <5%)” and the “PS: anti-psychotic (probability that activity matches class)” value (from here on “PS: anti-psychotic”) is given as “+ (LOQ ≤ + <5%)”. In addition, the “SD: sedative hypnotic (probability that activity matches class)” value (“SD: sedative hypnotic” for short) is listed as “+ (LOQ ≤ + <5%)” and the “UN: uncharacterized CNS activity (probability that activity matches class)” value (“UN: uncharacterized CNS activity” below) is on record as “+ (LOQ ≤ + <5%)”.

In the case of `NC[C@@H]1OCCc2c(-c3cncnc3)cccc21` (single isomer, unassigned) [Compound 27, hydrochloride salt], the minimal effective dose was over 30 mg/kg, the “AD: ADHD” value is on record as “+ (LOQ ≤ + <5%)”, the “AG: analgesic” value is “+ (LOQ ≤ + <5%)” and the “AX: anxiolytic” value was “++ (5% ≤ ++ <25%)”. For the same compound, the “CE: cognitive enhancer” value is “+ (LOQ ≤ + <5%)”, the “DP: anti-depressant” value is listed as “++ (5% ≤ ++ <25%)”, the “MS: mood stabilizer” value is recorded as “+ (LOQ ≤ + <5%)” and the “PS: anti-psychotic” value is “++ (5% ≤ ++ <25%)”. Besides, the “SD: sedative hypnotic” value is recorded as “+ (LOQ ≤ + <5%)” and the “UN: uncharacterized CNS activity” value is on record as “+ (LOQ ≤ + <5%)”.

On to `NC[C@H]1OCCc2c(-c3cncnc3)cccc21` (single isomer, unassigned) [Compound 28, hydrochloride salt], for which the minimal effective dose is 3 to 10 mg/kg, the “AD: ADHD” value is recorded as “++ (5% ≤ ++ <25%)”, the “AG: analgesic” value is on record as “++ (5% ≤ ++ <25%)” and the “AX: anxiolytic” value was “++ (5% ≤ ++ <25%)”. Besides, the “CE: cognitive enhancer” value is recorded as “++ (5% ≤ ++ <25%)”, the “DP: anti-depressant” value is listed as “+++ (25% ≤ +++ <50%)”, the “MS: mood stabilizer” value was “+ (LOQ ≤ + <5%)” and the “PS: anti-psychotic” value was “++ (5% ≤ ++ <25%)”. The “SD: sedative hypnotic” value is given as “+ (LOQ ≤ + <5%)” and the “UN: uncharacterized CNS activity” value is “++ (5% ≤ ++ <25%)”.

As to `CNC[C@@H]1OCCc2c(-c3cncnc3)cccc21` (single isomer, unassigned) [Compound 29, hydrochloride salt], the minimal effective dose is over 30 mg/kg, the “AD: ADHD” value is on record as “+ (LOQ ≤ + <5%)”, the “AG: analgesic” value was “+ (LOQ ≤ + <5%)” and the “AX: anxiolytic” value was “+ (LOQ ≤ + <5%)”. Moreover, the “CE: cognitive enhancer” value is “+ (LOQ ≤ + <5%)”, the “DP: anti-depressant” value is reported as “+ (LOQ ≤ + <5%)”, the “MS: mood stabilizer” value is given as “+ (LOQ ≤ + <5%)” and the “PS: anti-psychotic” value was “+ (LOQ ≤ + <5%)”. Further, the “SD: sedative hypnotic” value is listed as “+ (LOQ ≤ + <5%)” and the “UN: uncharacterized CNS activity” value was “+ (LOQ ≤ + <5%)”.

On to `CNC[C@H]1OCCc2c(-c3cncnc3)cccc21` (single isomer, unassigned) [Compound 30, hydrochloride salt], for which the minimal effective dose was in the range of 3 to 10 mg/kg, the “AD: ADHD” value is reported as “++ (5% ≤ ++ <25%)”, the “AG: analgesic” value was “++ (5% ≤ ++ <25%)” and the “AX: anxiolytic” value is given as “++ (5% ≤ ++ <25%)”. For the same compound, the “CE: cognitive enhancer” value was “++ (5% ≤ ++ <25%)”, the “DP: anti-depressant” value is recorded as “++++ (50% ≤ ++++)”, the “MS: mood stabilizer” value is “+ (LOQ ≤ + <5%)” and the “PS: anti-psychotic” value is listed as “+ (LOQ ≤ + <5%)”. The “SD: sedative hypnotic” value is given as “+ (LOQ ≤ + <5%)” and the “UN: uncharacterized CNS activity” value is given as “+ (LOQ ≤ + <5%)”.

On to `CNC[C@@H]1OCCc2cc(-c3cccnn3)ccc21` (single isomer, unassigned) [Compound 31, hydrochloride], for which the minimal effective dose was over 30 mg/kg, the “AD: ADHD” value is “+ (LOQ ≤ + <5%)”, the “AG: analgesic” value is “+ (LOQ ≤ + <5%)” and the “AX: anxiolytic” value is “++ (5% ≤ ++ <25%)”. The “CE: cognitive enhancer” value is recorded as “+ (LOQ ≤ + <5%)”, the “DP: anti-depressant” value is listed as “++ (5% ≤ ++ <25%)”, the “MS: mood stabilizer” value is listed as “+ (LOQ ≤ + <5%)” and the “PS: anti-psychotic” value is on record as “+ (LOQ ≤ + <5%)”. The “SD: sedative hypnotic” value was “+ (LOQ ≤ + <5%)” and the “UN: uncharacterized CNS activity” value is reported as “+ (LOQ ≤ + <5%)”.

Turning to `CNC[C@H]1OCCc2cc(-c3cccnn3)ccc21` (single isomer, unassigned) [Compound 32, hydrochloride], the minimal effective dose was over 30 mg/kg, the “AD: ADHD” value is given as “+ (LOQ ≤ + <5%)”, the “AG: analgesic” value is “+ (LOQ ≤ + <5%)” and the “AX: anxiolytic” value is listed as “+ (LOQ ≤ + <5%)”. The “CE: cognitive enhancer” value is listed as “+ (LOQ ≤ + <5%)”, the “DP: anti-depressant” value was “+ (LOQ ≤ + <5%)”, the “MS: mood stabilizer” value is “+ (LOQ ≤ + <5%)” and the “PS: anti-psychotic” value was “+ (LOQ ≤ + <5%)”. The “SD: sedative hypnotic” value was “+ (LOQ ≤ + <5%)” and the “UN: uncharacterized CNS activity” value is “+ (LOQ ≤ + <5%)”.

Turning to `NC[C@@H]1OCc2c(-c3ccncc3)cccc21` (single isomer, unassigned) [Compound 37, hydrochloride salt], the minimal effective dose was in the range of 10 to 30 mg/kg, the “AD: ADHD” value is recorded as “++ (5% ≤ ++ <25%)”, the “AG: analgesic” value is given as “++ (5% ≤ ++ <25%)” and the “AX: anxiolytic” value is “++ (5% ≤ ++ <25%)”. Also, the “CE: cognitive enhancer” value is recorded as “+ (LOQ ≤ + <5%)”, the “DP: anti-depressant” value is recorded as “+++ (25% ≤ +++ <50%)”, the “MS: mood stabilizer” value is “+ (LOQ ≤ + <5%)” and the “PS: anti-psychotic” value is “+ (LOQ ≤ + <5%)”. The “SD: sedative hypnotic” value was “+ (LOQ ≤ + <5%)” and the “UN: uncharacterized CNS activity” value is reported as “+ (LOQ ≤ + <5%)”.

Regarding `NC[C@H]1OCc2c(-c3ccncc3)cccc21` (single isomer, unassigned) [Compound 38, hydrochloride salt], the minimal effective dose is at most 3 mg/kg, the “AD: ADHD” value is on record as “++ (5% ≤ ++ <25%)”, the “AG: analgesic” value is reported as “++ (5% ≤ ++ <25%)” and the “AX: anxiolytic” value is listed as “+++ (25% ≤ +++ <50%)”. Moreover, the “CE: cognitive enhancer” value is “+ (LOQ ≤ + <5%)”, the “DP: anti-depressant” value is “++++ (50% ≤ ++++)”, the “MS: mood stabilizer” value was “+ (LOQ ≤ + <5%)” and the “PS: anti-psychotic” value is recorded as “+ (LOQ ≤ + <5%)”. Besides, the “SD: sedative hypnotic” value is given as “++ (5% ≤ ++ <25%)” and the “UN: uncharacterized CNS activity” value is on record as “++ (5% ≤ ++ <25%)”.
